Assay results from article PMC6888004 (International Journal of Molecular Sciences, 2019).
Read-outs that look alike come from different tables or passages of the source.

Legend:
prostate cancer GnRHR = biological target: T1, prostate cancer GnRHR (Homo sapiens, UniProt P30968); assay: Radioligand competition assay, [125I]-[D-Trp6]-GnRH-I displacement, human prostate cancer membranes; conditions: inhibition of [125I]-[D-Trp6]-GnRH-I binding to membranes
T1 construct: the human prostate cancer specimen was obtained from a patient at the time of initial surgical treatment; from tissue; host or cells: human prostate cancer surgical specimen, membranes
T1 sequence (P30968 1-328): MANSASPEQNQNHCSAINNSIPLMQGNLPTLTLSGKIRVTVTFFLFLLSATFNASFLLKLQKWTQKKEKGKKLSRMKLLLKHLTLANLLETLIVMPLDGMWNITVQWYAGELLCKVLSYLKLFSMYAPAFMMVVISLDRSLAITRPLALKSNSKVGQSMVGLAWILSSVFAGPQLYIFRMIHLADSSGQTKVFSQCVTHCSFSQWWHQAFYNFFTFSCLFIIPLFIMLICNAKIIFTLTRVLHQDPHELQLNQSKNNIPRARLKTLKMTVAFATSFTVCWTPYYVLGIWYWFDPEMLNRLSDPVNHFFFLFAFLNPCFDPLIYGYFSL
Experimental: (§1) The collection and use of the tissue samples for our studies were approved by the local Institutional Ethics Committee. Normal human pituitary (anterior lobe) tissue was collected at autopsy and the human prostate cancer specimen was obtained from a patient at the time of initial surgical treatment. The ligand competition assay was performed as described previously.

[1] = pH-dependent artificial membrane permeability assay (PAMPA); format: in vitro ADME
Experimental: An artificial-membrane-based system (BD Gentest™ Pre-Coated PAMPA plate, Corning, cat. no.: 353015) was used to determine the pH-dependent membrane permeability of the compounds. In this method, the protocol provided by the manufacturer was followed with minor modifications. Four different pH values were applied per compound. […] Stock solutions of compounds in DMSO were diluted to 100 µM in each PBS. PBS solutions were loaded into the donor wells, but the acceptor wells were filled with physiological PBS (pH = 7.4). The system was gently shaken (BioSan Thermo-Shaker PST-60HL) for 5 h at 25 °C. […] Calculation formula and the calculated data are available in the Supplementary Information, Section S4. page 11: S4. PAMPA Calculation formula: −ln(1 − CaCe) Pe = 1 1 A ∗ (Vd + Va) ∗ t Ce = (Cd ∗ Vd + Ca∗ Va)/(Vd + Va) R = 1 − Cd ∗ Vd + Ca∗ Va C0 ∗ Vd Pe = permeability (cm/s) R = mass retention (percentage loss of compound due to non-specific binding to the plastic surfaces during the permeation assay) A = membrane area (cm2) c0 = initial donor concentration ca = final acceptor concentration cd = final donor concentration ce = equilibrium concentration t = incubation time (sec) Va = acceptor volume (mL) Vd = donor volume (mL)

human pituitary GnRHR = biological target: T2, human pituitary GnRHR (Homo sapiens, UniProt P30968); assay: Radioligand competition assay, [125I]-[D-Trp6]-GnRH-I displacement, human pituitary membranes; conditions: inhibition of [125I]-[D-Trp6]-GnRH-I binding to membranes
T2 construct: Normal human pituitary (anterior lobe) tissue was collected at autopsy; from tissue; host or cells: normal human pituitary (anterior lobe), autopsy tissue, membranes
T2 sequence (P30968 1-328): T1 sequence (P30968 1-328)
Experimental: as §1

recombinant c-Met kinase = biological target: T3, recombinant c-Met kinase (Homo sapiens, UniProt P08581); assay: In vitro inhibition of recombinant c-Met kinase (ADP-Glo); format: biochemical; conditions: recombinant kinase assay, ATP 3.1 µM
T3 construct: purchased ProQinase 0171-0000-1
T3 sequence (P08581 25-1390): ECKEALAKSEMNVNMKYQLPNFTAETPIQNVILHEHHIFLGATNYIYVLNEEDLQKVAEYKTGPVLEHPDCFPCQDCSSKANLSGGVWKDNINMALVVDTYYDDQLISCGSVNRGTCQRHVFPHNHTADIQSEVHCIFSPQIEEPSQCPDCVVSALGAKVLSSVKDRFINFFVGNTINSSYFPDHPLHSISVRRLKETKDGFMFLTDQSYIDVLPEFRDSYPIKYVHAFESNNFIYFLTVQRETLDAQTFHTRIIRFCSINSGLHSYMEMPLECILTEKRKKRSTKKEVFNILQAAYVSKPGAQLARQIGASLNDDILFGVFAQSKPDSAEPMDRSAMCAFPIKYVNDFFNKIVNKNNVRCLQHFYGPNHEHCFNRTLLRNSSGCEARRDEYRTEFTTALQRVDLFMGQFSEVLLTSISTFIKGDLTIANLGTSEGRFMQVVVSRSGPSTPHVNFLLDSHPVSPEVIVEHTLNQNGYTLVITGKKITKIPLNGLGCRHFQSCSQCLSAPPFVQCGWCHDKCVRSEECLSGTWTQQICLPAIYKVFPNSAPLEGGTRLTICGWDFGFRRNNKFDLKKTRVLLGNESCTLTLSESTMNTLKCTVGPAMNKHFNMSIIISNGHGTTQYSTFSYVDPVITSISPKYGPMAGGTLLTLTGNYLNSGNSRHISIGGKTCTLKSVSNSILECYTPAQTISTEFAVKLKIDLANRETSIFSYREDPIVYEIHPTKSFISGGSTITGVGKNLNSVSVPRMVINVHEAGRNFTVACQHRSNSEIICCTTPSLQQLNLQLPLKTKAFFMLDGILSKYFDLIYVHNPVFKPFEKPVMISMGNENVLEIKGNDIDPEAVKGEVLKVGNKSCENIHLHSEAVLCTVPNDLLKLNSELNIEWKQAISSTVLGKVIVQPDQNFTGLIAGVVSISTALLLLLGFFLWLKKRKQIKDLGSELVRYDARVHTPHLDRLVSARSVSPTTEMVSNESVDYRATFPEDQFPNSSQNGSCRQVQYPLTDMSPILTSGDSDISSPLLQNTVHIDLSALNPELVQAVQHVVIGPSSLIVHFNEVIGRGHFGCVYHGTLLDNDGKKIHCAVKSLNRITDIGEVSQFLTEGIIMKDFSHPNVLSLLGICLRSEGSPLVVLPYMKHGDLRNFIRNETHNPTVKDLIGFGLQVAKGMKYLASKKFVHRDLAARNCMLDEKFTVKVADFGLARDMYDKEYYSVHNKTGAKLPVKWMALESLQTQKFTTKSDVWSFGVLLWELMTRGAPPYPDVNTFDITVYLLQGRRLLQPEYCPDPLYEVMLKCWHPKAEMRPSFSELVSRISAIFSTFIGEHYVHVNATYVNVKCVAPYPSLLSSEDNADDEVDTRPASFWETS
Experimental: Reaction buffer was prepared according to ProQinase’s recommendation [60 mM HEPES, 3 mM MgCl2, 3 mM MnCl2, 3 µM Na3VO4, 1.2 mM DTT (dithiothreitol), and 50 µg/mL PEG20,000, (reagents were obtained from Merck Millipore)]. Enzyme activity was assayed in 384 well, low-volume white microtiter plates (Corning®, Merck Millipore, cat. no.: CLS4513-50EA). Compounds were preincubated with c-Met kinase for 30 min at room temperature and reactions were started by adding the substrate–ATP mixture. Reaction time was 60 min at room temperature. Enzyme reaction was stopped using ADP-Glo™ Kinase Assay (Promega, cat. no.: V6930) according to the manufacturer’s instructions (40 min incubation with ADP-Glo™ Reagent, 30 min incubation with Kinase detection reagent at 25 °C). All measurements were performed using a Synergy 2 Multi-Mode Reader (BioTek, Winooski, VT, USA). Raw enzyme activity values were converted to relative activity data using positive and negative controls.

c-Met = c-Met phosphorylation in EBC-1 cells by western blot; format: cell-based; conditions: 6 h
Experimental: To analyze the effect of the compounds on c-Met phosphorylation, EBC-1 cells were seeded in six well plates and grown to 90% confluence. […] Cells were incubated with the compounds for 6 h at 37 °C in a CO2 incubator. After the incubation, western blot analysis was performed. To investigate GnRH-R protein level, cells were seeded in six well plates and grown to 90% confluence, then western blot analysis was applied.
Bands were visualized via Enhanced Chemiluminescence detection system (Western Lightning ECL Pro, PerkinElmer, Waltham, MA, USA, cat. no.: NEL122001EA).

EBC-1 cells = assay: Galectin puncta assay for lysosomal membrane permeabilization; format: cell-based; conditions: 8 h
Experimental: EBC-1 cells were seeded on eight well Ibidi® μ-Slide microscopic slides (2 × 10^4 cells/well) and allowed to adhere for 48 h. […] Untreated (0.2% DMSO in EMEM) cells were used as a negative control. Cells were incubated with the compounds for 8 h at 37 °C in a CO2 incubator. Cells were fixed with 4% paraformaldehyde for 10 min and washed twice with PBS (Lonza). Cells were permeabilized with 0.1% (v/v) Triton X-100 PBS solution for 10 min. After blocking (5% v/v BSA in PBS), cells were incubated with anti-galectin 3 (Merck, cat. no.: SAB4501746, dilution: 1:100) and anti-galectin-1 (Santa Cruz Biotechnology, cat. no.: sc-166618, dilution: 1:100) primary antibodies overnight at 25 °C, followed by Alexa-Fluor-488-conjugated (Jackson ImmunoResearch., cat. no.: 111-545-003, dilution: 1:500) and Alexa-Fluor-594-conjugated (Jackson ImmunoResearch, cat. no.: 115-585-003, dilution: 1:250) secondary antibodies for 1 h at 25 °C. DRAQ5 (10 µM) was added to the cells for 15 min. Cells were washed three times with PBS and a few drops of mounting media (Merck Millipore) were added. Images of cells were acquired with a confocal laser microscope (Zeiss Confocal LSM 710). [Objective: Plan-Apochromat 63x/1.40 Oil DIC M27. Pinhole: 1.01 AU. Laser wavelength: 488 nm, 543 nm and 633 nm. Detection wavelength: 504–539 nm; 602–651 nm; 694–758 nm)].

EBC-1 NSCLC cells = assay: CellTiter-Glo cell viability assay on EBC-1 cells; format: cell-based; conditions: for IC50: CellTiter-Glo, 72 h treatment, read-out: IC50, viability inhibition on EBC-1 cells
Experimental: EBC-1 cell line was obtained from the Japanese Collection of Research Bioresources Cell Bank (JCRB, Solana Beach, CA 92075 USA) and cultured in Eagle’s minimum essential medium (EMEM) (Lonza, Basel, Switzerland, cat. no.: BE12-611F,) supplemented with 1% MycoZap (Lonza, cat. no.: VZA-2012) and 10% fetal bovine serum (FBS) (Thermo Fisher Scientific, Waltham, MA, USA, cat. no.: 10500-064).
(§2) Effects of the synthesized compounds on EBC-1 and fibroblast cell viability was measured via CellTiter-Glo® luminescent cell viability assay (Promega, Madison, WI, USA) according to the manufacturer’s instructions. Briefly, cells were plated at 1000 cells/well onto a flat-bottomed, white 96 well plate (BRANDplates, cat. no.: 781965). After 24 h, cells were treated for 72 h with either the desired 4-fold serial diluted compound concentrations or vehicle (0.2% DMSO) control. After the treatment, the luminescence signal was recorded using a microplate reader (BioTek Synergy 2 Multi-Mode Reader, BioTek, Winooski, VT, USA). Dose–response curves (using a non-linear regression model) were generated and IC50 values were determined using Graph Pad Prism 5.02 software (GraphPad Software, San Diego, CA, USA).

[2] = Stability in EMEM cell culture medium at 37 °C (HPLC-UV); format: in vitro ADME; conditions: for stability in cell culture medium: EMEM, 37 °C, up to 72 h
Experimental: Stock solutions of compounds in DMSO were diluted to 10 µM in complemented EMEM (Lonza). Samples were incubated for 2, 6, 24, and 72 h at 37 °C. After the incubation, acetonitrile (VWR, cat. no.: 83639.320) was added to the solutions (1:1 ratio, to achieve 50% acetonitrile content). The samples were vortexed and centrifuged (13,000× g, 10 min). Supernatants were measured by HPLC-UV. HPLC method and chromatograms are available in the Supplementary Information. Stability was calculated using the external standard method. Decay curves were generated and half-life was calculated by GraphPad Prism 5.02 software.

[3] = tested on: primary human skin fibroblast cells; assay: CellTiter-Glo cell viability assay on primary skin fibroblast cells; format: cell-based; conditions: GnRHR-negative cells, 72 h treatment, read-out: IC50, viability inhibition on primary human skin fibroblast cells
Experimental: Primary human skin fibroblast cells (fibroblast cells) were gifted by the Institute of Genomic Medicine and Rare Disorders, Semmelweis University (Budapest, Hungary). Fibroblast cells were cultured in Dulbecco’s modified Eagle’s medium (DMEM) (Thermo Fisher Scientific, cat. no.: 41965039) supplemented with 10% FBS (Thermo Fisher Scientific), 1% penicillin–streptomycin (Thermo Fisher Scientific, cat. no.: 15070063) and 1% MEM Non-Essential Amino Acids Solution (Thermo Fisher Scientific, cat. no.: 11140035). Cell cultures were grown in vitro at 37 °C, 95% air and 5% CO2 atmosphere.
as §2

| Compound | IC50 (prostate cancer GnRHR) [nM] | IC50 (human pituitary GnRHR) [nM] | IC50 (recombinant c-Met kinase) [nM] | inhibition of c-Met phosphorylation in EBC-1 cells (c-Met; 100 nM) | stability in cell culture medium [2] | IC50 ([3]; Homo sapiens, Skin fibroblast) [nM] | IC50 (EBC-1 NSCLC cells; Homo sapiens, EBC-1) [nM] | also measured |
| --- | --- | --- | --- | --- | --- | --- | --- | --- |
| CC(C)C[C@H](NC(=O)[C@@H](CCCCNC(=O)CCCC(=O)N1CCC(n2cc(-c3cnc(N)c(OC(C)c4c(Cl)ccc(F)c4Cl)c3)cn2)CC1)NC(=O)[C@H](Cc1ccc(O)cc1)NC(=O)[C@H](CO)NC(=O)[C@H](Cc1c[nH]c2ccccc12)NC(=O)[C@H](Cc1c[nH]cn1)NC(=O)[C@@H]1CCC(=O)N1)C(=O)N[C@@H](CCCNC(=N)N)C(=O)N1CCC[C@H]1C(=O)NCC(N)=O (mixture of isomers) [[D-Lys^6(crizotinib*)]–GnRH-I] | 39.5 ± 1.7 | 34.6 ± 4.2 | 163 | no significant inhibitory effect |  |  |  | PAMPA membrane permeability ([1]; PAMPA, pH 4.8): not to be membrane-permeable; inhibition of c-Met phosphorylation in EBC-1 cells (c-Met; 1 µM): moderate; inhibition of c-Met phosphorylation in EBC-1 cells (c-Met; 10 µM): abolished; galectin puncta formation (EBC-1 cells; 0.1 µM): negligable; galectin puncta formation (EBC-1 cells; 1 µM): clearly detectable; galectin puncta formation (EBC-1 cells; 10 µM and 100 µM): more and more significant; viability inhibition effect on EBC-1 cells (EBC-1 NSCLC cells; highest 10 µM concentration): only a moderate effect; viability inhibition effect on EBC-1 cells (EBC-1 NSCLC cells; submicromolar range): did not show any significant effect |
| CC(Oc1cc(-c2cnn(C3CCN(CCO)CC3)c2)cnc1N)c1c(Cl)ccc(F)c1Cl (centres unmarked) [MJ55*] |  |  | 39 | completely inhibited | stable | 2600 | 23 | PAMPA permeability ([1]; early endosome-/lysosome-like pH (pH = 6.0 and 4.8)): near zero |
| CC(C)C[C@H](NC(=O)[C@@H](CCCCNC(=O)CCCC(=O)OCCN1CCC(n2cc(-c3cnc(N)c(OC(C)c4c(Cl)ccc(F)c4Cl)c3)cn2)CC1)NC(=O)[C@H](Cc1ccc(O)cc1)NC(=O)[C@H](CO)NC(=O)[C@H](Cc1c[nH]c2ccccc12)NC(=O)[C@H](Cc1c[nH]cn1)NC(=O)[C@@H]1CCC(=O)N1)C(=O)N[C@@H](CCCNC(=N)N)C(=O)N1CCC[C@H]1C(=O)NCC(N)=O (stereo partly drawn) [[D-Lys^6(MJ55*)]–GnRH-I] | 29.7 ± 3.1 | 21.7 ± 1.4 | ~147 | blocked c-Met phosphorylation |  |  |  | half-life ([2]; half-life of the ester bond / conjugate in EMEM): ~8 h; IC50 [3]: 3000 nM; IC50 (EBC-1 NSCLC cells): 90 nM |
| CC(C)C[C@H](NC(=O)[C@@H](CCCCN)NC(=O)[C@H](Cc1ccc(O)cc1)NC(=O)[C@H](CO)NC(=O)[C@H](Cc1c[nH]c2ccccc12)NC(=O)[C@H](Cc1cnc[nH]1)NC(=O)[C@@H]1CCC(=O)N1)C(=O)N[C@@H](CCCNC(=N)N)C(=O)N1CCC[C@H]1C(=O)NCC(N)=O [[D-Lys^6]–GnRH-I, reference compound] |  |  |  |  | stable |  |  |  |
| Cn1c(=O)c2c(ncn2C)n(C)c1=O [caffeine, reference compound] |  |  |  |  |  |  |  | PAMPA permeability over the investigated pH range ([1]; PAMPA): remained constant |
| C[C@@H](Oc1cc(-c2cnn(C3CCNCC3)c2)cnc1N)c1c(Cl)ccc(F)c1Cl [crizotinib*] |  |  |  |  |  | 2600 | 28 |  |
